The results in this text go back to US20250090472A1, “LIPID NANOPARTICLE COMPOSITIONS AND USES THEREOF” (BEIJING JITAI PHARMACEUTICAL TECHNOLOGY CO., LTD., priority 2023, published 2025).

The structures appear in SMILES notation.

In the assay the test system is C57BL/6 mice. The assay is described as follows: In vivo bioluminescence assay of LNPs encapsulating luciferase mRNA (without permanently cationic lipid). Conditions: intravenous single dose 0.5 mg/kg luciferase mRNA, 6 h after administration, group mean. How it is done: The delivery effect and safety of nanoparticles encapsulated with luciferase mRNA (Trilink, L-7202) in mice were evaluated. The test mice were SPF-grade C57BL/6 mice, female, 6-8 weeks old, weighing 18-22 g, and were purchased from SPF (Beijing) Biotechnology Co., Ltd. All animals were acclimatized for more than 7 days prior to the experiment, and had free access to food and water during the experiment. The conditions include alternating light and dark for 12/12 h, the indoor temperature of 20-26° C. and the humidity of 40-70%. The mice were randomly grouped. The lipid nanoparticles encapsulated with luciferase mRNA prepared above were injected into mice by intravenous administration at a single dose of 0.5 mg/kg mRNA, and the mice were subjected to in vivo bioluminescence assay using a Small Animal In Vivo Imaging System (IVIS LUMINA III, purchased from PerkinElmer) at 6 h after administration. The assay was performed as follows: D-luciferin solution was prepared in saline at a concentration of 15 mg/mL, and each mouse was given the substrate by intraperitoneal injection. At ten minutes after administration of the substrate, the mice were anesthetized in an anesthesia chamber with isoflurane at a concentration of 2.5%. The anesthetized mice were placed in IVIS for luminescent imaging. Data acquisition and analysis were performed on the concentrated distribution area of luminescence.
The in vivo delivery efficiency of lipid nanoparticle carriers was expressed as the mean values of fluorescence intensity and total photon count in different animals measured at 6 hours after administration of the lipid nanoparticle within the same subject group, as shown in Table 4. Higher values of fluorescence intensity and total photon count indicate higher in vivo delivery efficiency of this mRNA fragment by the lipid nanoparticles.
For `CCCCCCCCCOC(=O)CC(C)(C)CCCCC(CCCCC(C)(C)CC(=O)OCCCCCCCCC)OC(=O)CCCN(C)C` [Compound 97], the “Total photon count in vivo (Total Flux)” value is 3.37E+09. The result for `CCCCCCC#CCCOC(=O)C(C)(C)CCCCCC(CCCCCC(C)(C)C(=O)OCCC#CCCCCCC)OC(=O)CCCN(C)C` [Compound 24] reads 5.56E+09; that for `CCCCC/C=C\C/C=C\CCCCCCCCC(CCCCCCCC/C=C\C/C=C\CCCCC)OC(=O)CCCN(C)C` [Dlin-MC3-DMA, reference compound], 8.04E+09; that for `CCCCCCCCCOC(=O)C(C)(C)CCCCCC(CCCCCC(C)(C)C(=O)OCCCCCCCCC)OC(=O)CC1CCN(CCO)CC1` [Compound 113], 3.59E+08. In the case of `CCCCCCCCCOC(=O)C(C)(C)CCCCCC(CCCCCC(C)(C)C(=O)OCC(CCCCC)CCCCCCC)OC(=O)CC1CCN(CCO)CC1` (centres unmarked) [Compound 114], the “Total photon count in vivo (Total Flux)” value stood at 1.06E+08.

As to `CCCCCCCCCSC(=O)C(C)(C)CCCCCC(CCCCCC(C)(C)C(=O)SCCCCCCCCC)OC(=O)CC1CCN(CCO)CC1` [Compound 110], the “Total photon count in vivo (Total Flux)” value turned out to be 2.06E+08. As for `CCCCCCCCCCOC(=O)C(C)(C)CCCCCC(CCCCCC(C)(C)C(=O)OCCCCCCCCCC)OC(=O)C1CCN(C)CC1` [Compound 99], the figure is 5.30E+09; as for `CCCCCCCCN(CCCCCCCC)CCOC(=O)C(C)(C)CCCCCC(CCCCCC(C)(C)C(=O)OCCN(CCCCCCCC)CCCCCCCC)OC(=O)CCN(C)C` [Compound 15], 4.89E+08; as for `CCCCCCCCCSC(=O)C(C)(C)CCCCCC(CCCCCC(C)(C)C(=O)OCC#CCCC(CCCC)CCCC)OC(=O)CCCN(C)C` (centres unmarked) [Compound 119], 3.25E+10. For `CC(C)CCCCCCCOC(=O)CCC(C)(C)CCCC(CCCC(C)(C)CCC(=O)OCCCCCCCC(C)C)OC(=O)CCCN(C)C` [Compound 127], the “Total photon count in vivo (Total Flux)” value was found to be 3.59E+10.

As to `CCCCCCCCCCOC(=O)C(C)(C)CCCCCC(CCCCCC(C)(C)C(=O)OCCCCCCCCCC)OC(=O)CCN(C)C` [Compound 1], the “Total photon count in vivo (Total Flux)” value came to 6.43E+08.
